From publication PMC11272085, “Steroid Drugs Inhibit Bacterial Respiratory Oxidases and Are Lethal Toward Methicillin-Resistant Staphylococcus aureus” (The Journal of Infectious Diseases, 2024)
Values after ≈ are worked out from the molar mass of the structure shown. Values joined by “and” are separate entries in the source; they are usually repeats but may differ in a detail not shown here. Equal values may be shown once. “Also recorded” adds a separate entry of the source. Read-outs that look alike come from different tables or passages of the source. No end group written: not given here.

Assays:
E. coli cytochrome bd-I [1] = target: T1, E. coli cytochrome bd-I (Escherichia coli, UniProt P0ABJ9); conditions: peptides that bind to E. coli cytochrome bd-I ref 33, 34, 35; cited from earlier work
T1 construct: endogenous in cells; host or cells: E. coli EC958 (O25:H4-ST131) bd-I-only mutant (ΔcyoA appCB::Cm), isolated cell membranes
T1 sequence (P0ABJ9 whole entry, looked up): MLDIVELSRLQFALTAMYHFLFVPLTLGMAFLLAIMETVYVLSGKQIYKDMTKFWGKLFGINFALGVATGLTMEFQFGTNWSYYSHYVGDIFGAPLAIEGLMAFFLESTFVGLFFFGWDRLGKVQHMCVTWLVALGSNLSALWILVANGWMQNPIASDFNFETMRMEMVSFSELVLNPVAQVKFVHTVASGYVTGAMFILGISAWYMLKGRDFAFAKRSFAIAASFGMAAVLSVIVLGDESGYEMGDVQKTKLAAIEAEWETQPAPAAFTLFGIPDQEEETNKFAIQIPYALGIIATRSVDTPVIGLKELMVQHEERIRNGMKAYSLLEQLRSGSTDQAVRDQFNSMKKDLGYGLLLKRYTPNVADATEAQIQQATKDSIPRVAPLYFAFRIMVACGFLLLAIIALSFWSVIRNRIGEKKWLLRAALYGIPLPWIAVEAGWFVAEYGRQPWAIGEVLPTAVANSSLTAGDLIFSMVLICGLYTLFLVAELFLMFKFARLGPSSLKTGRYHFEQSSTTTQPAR

E. coli cytochrome bd-I [2] = target: T2, E. coli cytochrome bd-I (Escherichia coli, UniProt P0ABJ9); assay: Oxygen consumption assay (oxygen electrode), E. coli EC958 bd-I-only membranes; conditions: for Effect on oxygen consumption (in words) / IC50: E. coli bd-I-only membranes; for Effect on oxygen consumption (in words) / Inhibition of oxygen consumption: 100 µM drug; for Inhibition of oxygen consumption / IC50: 8 mM succinate; for Inhibition of oxygen consumption: 500 µg/mL membranes; for IC50: IC50 oxygen consumption
T2 sequence (P0ABK2 whole entry, one chain of several): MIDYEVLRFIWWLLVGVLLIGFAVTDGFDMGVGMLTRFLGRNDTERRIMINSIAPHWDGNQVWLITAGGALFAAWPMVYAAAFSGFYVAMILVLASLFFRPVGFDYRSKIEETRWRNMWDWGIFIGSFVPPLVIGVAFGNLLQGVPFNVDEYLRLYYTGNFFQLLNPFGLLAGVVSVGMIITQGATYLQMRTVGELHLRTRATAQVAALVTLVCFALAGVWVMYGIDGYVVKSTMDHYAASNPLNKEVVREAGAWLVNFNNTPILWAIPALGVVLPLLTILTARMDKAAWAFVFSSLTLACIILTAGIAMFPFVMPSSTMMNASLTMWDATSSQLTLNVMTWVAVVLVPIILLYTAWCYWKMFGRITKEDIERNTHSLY
T2 sequence (A5A618 whole entry, one chain of several, further chain): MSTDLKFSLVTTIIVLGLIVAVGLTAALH
T2 sequence (P56100 whole entry, one chain of several, further chain): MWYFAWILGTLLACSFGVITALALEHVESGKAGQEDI

[3] = system: Mycobacterium smegmatis bd-only strain; design: method as in PMID 31939065; conditions: ATP assays, M. smegmatis bd-only strain ref 40; cited from earlier work
E. coli cytochrome bd-I [4] = target: T2, E. coli cytochrome bd-I; design: endogenous in cells; host or cells: E. coli EC958 (O25:H4-ST131) bd-I-only mutant (ΔcyoA appCB::Cm), isolated cell membranes; conditions: peptides that bind to E. coli cytochrome bd-I ref 33, 34, 35; cited from earlier work
succinate dehydrogenase = target: T3, succinate dehydrogenase (Escherichia coli, UniProt P07014+P0AC41+P0AC44+P69054); assay: Succinate dehydrogenase assay, E. coli bd-I-only membranes; assay type: biochemical
T3 construct: endogenous in cells; host or cells: E. coli EC958 bd-I-only mutant (ΔcyoA appCB::Cm), isolated cell membranes
T3 sequence (P0AC44 whole entry): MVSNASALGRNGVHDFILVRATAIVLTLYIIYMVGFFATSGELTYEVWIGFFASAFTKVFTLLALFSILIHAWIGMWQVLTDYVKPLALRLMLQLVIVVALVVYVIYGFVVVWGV
T3 sequence (P07014 whole entry): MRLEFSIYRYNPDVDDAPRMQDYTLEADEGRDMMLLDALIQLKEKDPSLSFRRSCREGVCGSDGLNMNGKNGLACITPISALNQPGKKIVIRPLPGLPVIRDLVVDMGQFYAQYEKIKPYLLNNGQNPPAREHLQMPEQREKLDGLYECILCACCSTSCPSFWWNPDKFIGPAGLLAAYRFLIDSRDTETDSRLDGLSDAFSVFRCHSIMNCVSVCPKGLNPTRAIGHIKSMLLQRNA
T3 sequence (P0AC41 whole entry): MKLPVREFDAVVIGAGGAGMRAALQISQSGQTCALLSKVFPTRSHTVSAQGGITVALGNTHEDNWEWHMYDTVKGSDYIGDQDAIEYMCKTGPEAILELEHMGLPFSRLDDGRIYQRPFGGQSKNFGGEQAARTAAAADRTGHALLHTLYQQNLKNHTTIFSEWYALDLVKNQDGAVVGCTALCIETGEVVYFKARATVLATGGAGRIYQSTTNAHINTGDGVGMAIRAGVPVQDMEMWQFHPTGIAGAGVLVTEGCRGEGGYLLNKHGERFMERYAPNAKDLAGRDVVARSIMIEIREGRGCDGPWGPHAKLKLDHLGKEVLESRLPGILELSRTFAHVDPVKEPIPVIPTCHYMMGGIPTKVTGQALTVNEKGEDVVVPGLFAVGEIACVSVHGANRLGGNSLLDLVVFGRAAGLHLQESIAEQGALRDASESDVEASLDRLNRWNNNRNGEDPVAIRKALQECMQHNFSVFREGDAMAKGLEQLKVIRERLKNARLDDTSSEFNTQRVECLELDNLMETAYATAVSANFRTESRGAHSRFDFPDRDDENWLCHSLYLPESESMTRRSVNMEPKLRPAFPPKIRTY
T3 sequence (P69054 whole entry): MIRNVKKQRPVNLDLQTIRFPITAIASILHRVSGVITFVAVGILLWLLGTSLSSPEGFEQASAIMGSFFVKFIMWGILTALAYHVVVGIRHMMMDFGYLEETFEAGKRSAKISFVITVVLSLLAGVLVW
Description: The method used for the succinate dehydrogenase assay is an adaptation of Kolaj-Robin et al. 2011 [6]. A 1 mL mixture was prepared with a final concentration of 400 μM phenazine methosulfate (PMS), 8 mM succinate, 50 mM Tris-HCL (pH 8.5) buffer, 0.02 % n-dodecyl-β-D-maltoside, 2.5% drug, 500 µg/mL of bacteria membranes and 50 μM of dichlorophenolindophenol (added last). The phenazine methosulfate, succinate and membranes were first preincubated for 30 min at 37 °C before being added to the remaining mixture. To start the reaction, 50 μM of dichlorophenolindophenol was added that produced a starting OD600 that ranged from 0.8 to 1. Spectrakinetics were recorded on a Cary 60 spectrophotometer for 15 min.
Supplementary Figure S3. Succinate dehydrogenase (SDH) E. coli membrane assay with quinestrol. The activity of SDH was expressed as a percentage of the DMSO only control. Data represent the means of three repeats and error bars represent the standard deviation.

E. coli bd-I-only cells = assay: Viability assay, E. coli bd-I-only; assay type: cell-based, Escherichia coli; conditions: data not shown
[5] = system: vancomycin-resistant Enterococcus faecium; design: method as in PMID 28190396; conditions: previous screen ref 31; cited from earlier work
MRSA = system: MRSA; design: method as in PMID 28190396; conditions: previous screen ref 31; cited from earlier work
gram-negative species = system: gram-negative species; design: method as in PMID 28190396; conditions: previous screen ref 31; cited from earlier work
E. coli WT cells = assay: Viability assay, E. coli WT; conditions: 3 hours exposure
Description: (§1) Viability assays were performed essentially as described by Webster et al [22]. In brief, E. coli EC958 was grown overnight in 10 mL LB medium and was used to inoculate M9 medium. MRSA cells were grown in TSB medium throughout. Twenty microliters of each drug was added to the wells of row A of a 96-well plate followed by 180 µL of cells (OD600 of 0.1). Cells were exposed to drug for 3 hours at 37°C. Following drug exposure, serial dilutions were performed in 1× phosphate-buffered saline (pH 7.4) before being spotted onto LB agar plates overnight to determine changes in cell growth. Six repeats were performed for each concentration of drug, which included 2 biological repeats and 3 technical repeats of each.

MRSA USA300 WT = assay: Growth assay, MRSA USA300 WT
Description: (§2) Starter cultures were grown in 10 mL Luria–Bertani (LB) (E. coli) or 10 mL Tryptic Soy Broth (TSB) medium (MRSA) in sterile 50 mL conical flasks at 180 rpm and 37°C, until stationary phase was reached, and were used to inoculate 50 mL of fresh growth medium in 250 mL conical flasks. M9 minimal medium was used for E. coli (16 g/L Na2HPO4.2H2O, 3 g/L KH2PO4, 0.5 g/L NaCl, 1 g/L NH4Cl, 0.24 g/L MgSO4, 0.01 g/L CaCl2, 0.1% casamino acids, and 2% glycerol), and TSB medium was used for MRSA. […] Greiner F-bottom sterile 96-well plates were prepared by adding 100 µL of a 2× concentrated growth medium, 61.7 µL sterile milliQ H2O, 5 µL of the drug, and 33.3 µL of cell culture (final optical density at 600 nm [OD600] of ∼ 0.1). Cells were grown in a FLUOstar Omega plate reader at double orbital pattern setting with readings being taken 300 seconds apart.

E. coli EC958 WT = assay: Growth assay, E. coli EC958 WT; conditions: Escherichia coli, EC958WT, read-out: IC50 growth
Description: as §2

E. coli bo′-only cells = assay: Viability assay, E. coli bo′-only; conditions: data not shown
MRSA WT cells = assay: microbe, parasite or virus in culture; conditions: Staphylococcus aureus, 3 h, read-out: LC50 (median lethal concentration)
Description: as §1

MRSA bd-only cells = assay: microbe, parasite or virus in culture; conditions: Staphylococcus aureus, 3 h, read-out: LC50 (median lethal concentration)
Description: as §1

MRSA aa3-only cells = assay: microbe, parasite or virus in culture; conditions: Staphylococcus aureus, 3 h, read-out: LC50 (median lethal concentration)
Description: as §1

MRSA bd-only strain = assay: Growth assay, MRSA USA300 bd-only strain; conditions: Staphylococcus aureus, read-out: IC50 growth
Description: (§3) The methicillin-resistant Staphylococcus aureus (MRSA) strain used is the well-characterized USA300 LAC isolate [27], a community-associated MRSA strain isolated from the Los Angeles County Jail. All MRSA mutant strains were generated by phage transduction of the relevant transposon mutant from the Nebraska Transposon Mutant Library [28] into strain USA300 LAC using methods described previously [29], generating clean insertions in the loci of interest and conferring erythromycin resistance. For the purposes of this article, the MRSA qoxA::Tn strain will be referred to as “bd-only” while the cydA::Tn strain will be referred to as “aa3-only.”
(§4) Starter cultures were grown in 10 mL Luria–Bertani (LB) (E. coli) or 10 mL Tryptic Soy Broth (TSB) medium (MRSA) in sterile 50 mL conical flasks at 180 rpm and 37°C, until stationary phase was reached, and were used to inoculate 50 mL of fresh growth medium in 250 mL conical flasks. M9 minimal medium was used for E. coli (16 g/L Na2HPO4.2H2O, 3 g/L KH2PO4, 0.5 g/L NaCl, 1 g/L NH4Cl, 0.24 g/L MgSO4, 0.01 g/L CaCl2, 0.1% casamino acids, and 2% glycerol), and TSB medium was used for MRSA. […] Cells were grown in a FLUOstar Omega plate reader at double orbital pattern setting with readings being taken 300 seconds apart.

MRSA aa3-only strain = assay: Growth assay, MRSA USA300 aa3-only strain; conditions: Staphylococcus aureus, read-out: IC50 growth
Description: as §3, §4

E. coli bo′-only strain = assay: Growth assay, E. coli EC958 bo′-only strain; conditions: Escherichia coli, read-out: IC50 growth
Description: as §3, §4

E. coli bd-I-only strain = assay: Growth assay, E. coli EC958 bd-I-only strain; conditions: Escherichia coli, read-out: IC50 growth
Description: as §3, §4

MRSA cytochrome bd = MRSA cytochrome bd (Staphylococcus aureus, UniProt A0A0H2XF42); assay: Oxygen consumption assay, MRSA bd-only membranes; conditions: read-out: IC50 oxygen consumption; MRSA bd-only membranes 1 mg/mL, 500 µM NADH
MRSA cytochrome bd, sequence (A0A0H2XF42 entry or part of it): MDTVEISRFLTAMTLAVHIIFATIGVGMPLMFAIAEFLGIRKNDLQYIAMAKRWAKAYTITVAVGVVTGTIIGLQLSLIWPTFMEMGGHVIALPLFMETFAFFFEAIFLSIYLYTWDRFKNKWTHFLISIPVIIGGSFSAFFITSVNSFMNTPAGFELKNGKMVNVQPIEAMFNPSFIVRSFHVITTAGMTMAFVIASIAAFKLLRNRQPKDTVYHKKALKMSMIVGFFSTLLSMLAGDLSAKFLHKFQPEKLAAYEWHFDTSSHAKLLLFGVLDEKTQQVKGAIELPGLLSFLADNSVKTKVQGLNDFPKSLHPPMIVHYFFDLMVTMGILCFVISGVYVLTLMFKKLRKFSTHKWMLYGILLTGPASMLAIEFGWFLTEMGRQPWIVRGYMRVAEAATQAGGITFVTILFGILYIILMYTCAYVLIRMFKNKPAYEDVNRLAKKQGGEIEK
MRSA cytochrome bd, sequence (A0A0H2XJA4 entry or part of it, further chain): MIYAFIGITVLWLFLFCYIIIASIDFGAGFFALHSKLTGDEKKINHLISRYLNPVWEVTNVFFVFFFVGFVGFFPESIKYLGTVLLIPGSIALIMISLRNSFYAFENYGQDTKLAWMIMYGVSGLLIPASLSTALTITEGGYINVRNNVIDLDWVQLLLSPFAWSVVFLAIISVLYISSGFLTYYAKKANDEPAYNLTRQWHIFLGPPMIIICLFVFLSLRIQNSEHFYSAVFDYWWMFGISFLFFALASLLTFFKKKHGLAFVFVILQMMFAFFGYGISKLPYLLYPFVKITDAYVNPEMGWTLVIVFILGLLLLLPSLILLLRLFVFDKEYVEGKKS

cathelicidin LL-37
IC50 (in words) (E. coli cytochrome bd-I [1]): µM range

C#C[C@]1(O)CC[C@H]2[C@@H]3CCc4cc(OC)ccc4[C@H]3CC[C@@]21C [Mestranol]
Effect on oxygen consumption (in words) (E. coli cytochrome bd-I [2]): did not diminish oxygen consumption
Effect on oxygen consumption (in words) (E. coli cytochrome bd-I [2]; listed as mestranol): no inhibitory effects

CCn1c(C(=O)O)c(CNCCc2ccc(Cl)cc2)c2ccccc21 [MQL-H2, 3-[[2-(4-chlorophenyl)ethylamino]methyl]-1-ethyl-indole-2-carboxylic]
IC50 [3]: 34 µM

C#C[C@]1(O)CC[C@H]2[C@@H]3CCc4cc(O)ccc4[C@H]3CC[C@@]21C [Ethinyl estradiol]
Inhibition of oxygen consumption (E. coli cytochrome bd-I [2]): 2 fold
IC50 (E. coli cytochrome bd-I [2]): 159 µM and 158 µM

gramicidin S
IC50 (in words) (E. coli cytochrome bd-I [4]): µM range

C#C[C@]1(O)CC[C@H]2[C@@H]3CCc4cc(OC5CCCC5)ccc4[C@H]3CC[C@@]21C [Quinestrol]
Succinate dehydrogenase activity (in words) (succinate dehydrogenase): does not inhibit succinate dehydrogenase activity
Bactericidal activity (in words) (E. coli bd-I-only cells): no killing effects
Growth inhibition (in words) [5]: inhibit the growth
Growth inhibition (in words) (MRSA): inhibit the growth
Growth inhibition (in words) (gram-negative species): not gram-negative species
Bactericidal activity (in words) (E. coli WT cells): not lethal
Bactericidal activity (in words) (E. coli WT cells; listed as quinestrol): did not kill; also recorded: completely resistant to killing
IC50 (MRSA USA300 WT; Staphylococcus aureus, read-out: IC50 growth, MRSA WT, TSB medium): 9.8 µg/mL and 27 µM
IC50 (MRSA USA300 WT; read-out: IC50 growth, MRSA WT, TSB medium): 26.9 µM
IC50 (E. coli EC958 WT): 0.1 µg/mL and 300 nM
Bactericidal activity (in words) (E. coli bo′-only cells): no killing effects
CC50 (MRSA WT cells): 3.4 ± 0.7 µg/mL (≈ 9.33 µM)
CC50 (MRSA bd-only cells): 5.6 ± 0.3 µg/mL (≈ 15.4 µM)
CC50 (MRSA aa3-only cells): 24.7 ± 1.6 µM
IC50 (MRSA bd-only strain): 2.2 µg/mL and 6 µM
IC50 (MRSA aa3-only strain): 5.7 µg/mL and 15.6 µM
IC50 (E. coli bo′-only strain): 0.1 µg/mL and 300 nM
IC50 (E. coli bd-I-only strain): 0.06 µg/mL and 200 nM
IC50 (MRSA cytochrome bd): 2.69 µM
Inhibition of oxygen consumption (E. coli cytochrome bd-I [2]): 4 fold
IC50 (E. coli cytochrome bd-I [2]): 0.549 µM and 0.5 µM
Residual oxygen consumption activity (E. coli cytochrome bd-I [2]; at higher concentrations): around 20%

microcin J25 (GGAGHVPEYFVGIGTPISFYG; ends and bridges not checked; UniProt Q9X2V7 38-58, looked up)
IC50 (in words) (E. coli cytochrome bd-I [1]): µM range
